species on record: Rattus norvegicus; assay: In vitro metabolism in rat liver microsomes was evaluated to determine diminishing of glucuronidation rate; format: ADME

| Rate | Compound |
| --- | --- |
| 27 pM min-1 (mg of protein)-1 | COc1cc(/C=N/NC(=O)c2ccc(O)c(C#N)c2)cc(OC)c1OCc1ccc(C(C)C)cc1 |
| 169 pM min-1 (mg of protein)-1 | COc1cc(/C=N/NC(=O)c2ccc(O)c(Cl)c2)cc(OC)c1OCc1ccc(C(C)C)cc1 |

system: not listed separately; assay: Half life period in vivo; format: ADME, organism-based

| half-life | Compound |
| --- | --- |
| 60 min | COc1cc(/C=N/NC(=O)c2ccc(O)c(C#N)c2)cc(OC)c1OCc1ccc(C(C)C)cc1 |
| 18 min | COc1cc(/C=N/NC(=O)c2ccc(O)c(Cl)c2)cc(OC)c1OCc1ccc(C(C)C)cc1 |

molecular target: Glucagon receptor (Rattus norvegicus, UniProt P30082); assay: In vitro inhibitory activity against rat glucagon receptor using […]-labeled glucagon
Sequence (P30082 whole entry): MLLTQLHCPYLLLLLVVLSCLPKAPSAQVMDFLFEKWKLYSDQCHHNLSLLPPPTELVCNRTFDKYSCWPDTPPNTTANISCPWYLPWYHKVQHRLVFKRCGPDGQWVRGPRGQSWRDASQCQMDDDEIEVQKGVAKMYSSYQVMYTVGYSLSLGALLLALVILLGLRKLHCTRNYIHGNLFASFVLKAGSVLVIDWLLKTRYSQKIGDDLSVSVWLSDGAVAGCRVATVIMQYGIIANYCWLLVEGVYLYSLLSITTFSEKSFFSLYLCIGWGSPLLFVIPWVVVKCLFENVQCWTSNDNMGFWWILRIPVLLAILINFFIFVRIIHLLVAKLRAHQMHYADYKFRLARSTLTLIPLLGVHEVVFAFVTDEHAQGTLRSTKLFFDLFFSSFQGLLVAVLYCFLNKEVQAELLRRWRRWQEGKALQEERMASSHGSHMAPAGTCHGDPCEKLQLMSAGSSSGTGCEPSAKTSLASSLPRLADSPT

| IC50 | Compound |
| --- | --- |
| 1 nM | COc1cc(/C=N/NC(=O)c2ccc(O)c(C#N)c2)cc(OC)c1OCc1ccc(C(C)C)cc1 |

molecular target: Glucagon receptor (Homo sapiens, UniProt P47871); assay: In vitro inhibitory activity against human glucagon receptor using […]-labeled glucagon
Sequence (P47871 whole entry): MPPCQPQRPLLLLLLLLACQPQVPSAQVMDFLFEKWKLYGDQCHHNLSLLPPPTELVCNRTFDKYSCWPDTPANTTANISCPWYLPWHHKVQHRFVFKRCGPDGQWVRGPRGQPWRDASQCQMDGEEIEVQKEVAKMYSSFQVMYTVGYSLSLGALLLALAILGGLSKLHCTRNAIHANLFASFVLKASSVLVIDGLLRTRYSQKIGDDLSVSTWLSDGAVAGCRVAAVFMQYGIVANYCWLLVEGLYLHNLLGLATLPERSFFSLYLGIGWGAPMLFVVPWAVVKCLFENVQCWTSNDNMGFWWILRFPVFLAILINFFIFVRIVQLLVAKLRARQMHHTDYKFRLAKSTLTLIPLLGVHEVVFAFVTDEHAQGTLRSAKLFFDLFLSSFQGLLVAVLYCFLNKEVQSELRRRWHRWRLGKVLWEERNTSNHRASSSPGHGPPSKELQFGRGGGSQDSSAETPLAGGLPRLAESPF

| IC50 | Compound |
| --- | --- |
| 740 nM | Cc1c(/C=N/NC(=O)c2ccc(O)c(Cl)c2)ccc(OCc2ccc(C(C)C)cc2)c1C |
| 31 nM | COc1cc(/C=N/NC(=O)c2ccc(O)c(Cl)c2Cl)cc(OC)c1OCc1ccc(C(C)C)cc1 |
| 940 nM | COc1cc(/C=N/NC(=O)c2ccc(O)c(N)c2)cc(OC)c1OCc1ccc(C(C)C)cc1 |
| 130 nM | CCN(CC)C(=O)COc1ccc(/C=N/NC(=O)c2ccc(O)c(Cl)c2)c2ccccc12 |
| 20 nM | COc1cc(/C=N/NC(=O)c2ccc(O)c(C#N)c2)cc(OC)c1OCc1ccc(C(C)C)cc1 |
| 110 nM | COc1cc(/C=N/NC(=O)c2ccc(O)c(F)c2)cc(OC)c1OCc1ccc(C(C)C)cc1 |
| 140 nM | O=C(N/N=C/c1ccc(OCC2CCCCO2)c2ccccc12)c1ccc(O)c(Cl)c1 (configuration not stated) |
| 390 nM | CC(C)c1ccc(Cn2cc(/C=N/NC(=O)c3ccc(O)c(Cl)c3)c3ccccc32)cc1 |
| 1500 nM | CC(C)c1ccc(COc2ccc(/C=N/NC(=O)c3ccc(O)c(Cl)c3)cc2)cc1 |
| 690 nM | COC(=O)C(Oc1c(OC)cc(/C=N/NC(=O)c2ccc(O)c(Cl)c2)cc1OC)c1ccccc1 (configuration not stated) |
| 30000 nM | COc1cc(/C=N/NC(=O)c2ccc(O)c(Cl)c2)cc(C(=O)O)c1OCc1ccc(C(C)C)cc1 |
| 1200 nM | NC(=O)COc1ccc(/C=N/NC(=O)c2ccc(O)c(Cl)c2)c2ccccc12 |
| 23 nM | COc1cc(/C=N/NC(=O)c2ccc(O)c(Cl)c2)cc(OC)c1OCc1ccc(C(C)C)cc1 |
| 160 nM | CC(C)(C)c1nc(COc2ccc(/C=N/NC(=O)c3ccc(O)c(Cl)c3)c3ccccc23)no1 |
| 2700 nM | COc1cc(/C=N/NC(=O)c2ccc(O)c(O)c2)cc(OC)c1OCc1ccc(C(C)C)cc1 |
| 78300 nM | COc1cc(/C=N/NS(=O)(=O)c2ccc(O)c(Cl)c2)cc(OC)c1OCc1ccc(C(C)C)cc1 |

| IC50 | Compound |
| --- | --- |
| 53 nM | CC(C)c1ccc(COc2ccc(/C=N/NC(=O)c3ccc(O)c(Cl)c3)c3ccccc23)cc1 |
| 5200 nM | COc1cc(CCNC(=N)c2ccc(O)c(Cl)c2)cc(OC)c1OCc1ccc(C(C)C)cc1 |
| 1300 nM | COc1cc(/C=N/NC(=O)c2ccc(O)c(Cl)c2)ccc1OCc1ccc(C(C)C)cc1 |
| 330 nM | Cc1cc(/C=N/NC(=O)c2ccc(O)c(Cl)c2)cc(C)c1OCc1ccc(C(C)C)cc1 |
| 880 nM | COc1cc(CNNC(=O)c2ccc(O)c(Cl)c2)cc(OC)c1OCc1ccc(C(C)C)cc1 |
| 870 nM | COc1ccc(/C=N/NC(=O)c2ccc(O)c(Cl)c2)c2ccccc12 |
| 6400 nM | COc1cc(/C=C/C(=O)Nc2ccc(O)c(Cl)c2)cc(OC)c1OCc1ccc(C(C)C)cc1 |
| 84 nM | CC(C)c1ccc(Cn2ccc3c(/C=N/NC(=O)c4ccc(O)c(Cl)c4)cccc32)cc1 |
| 50 nM | COc1cc(/C=N/NC(=O)c2ccc(O)c([N+](=O)[O-])c2)cc(OC)c1OCc1ccc(C(C)C)cc1 |
| 180 nM | COc1cc(/C=N/NC(=O)c2ccc(O)c(Cl)c2)cc(OC)c1OCc1ccc(OC(F)(F)F)cc1 |
| 1900 nM | COc1cc(CCNC(=O)c2ccc(O)c(Cl)c2)cc(OC)c1OCc1ccc(C(C)C)cc1 |
| 48 nM | COc1cc(/C=N/NC(=O)c2ccc(O)c(F)c2F)cc(OC)c1OCc1ccc(C(C)C)cc1 |
| 58 nM | O=C(N/N=C/c1ccc(OCc2ccc(OC(F)(F)F)cc2)c2ccccc12)c1ccc(O)c(Cl)c1 |
| 150 nM | COc1cc(/C=N/NC(=O)c2ccc(O)c(Cl)c2)cc(OC)c1OCc1ccc(F)c(F)c1 |
| 690 nM | COc1cc(/C=N/NC(=O)c2ccc(O)cc2)cc(OC)c1OCc1ccc(C(C)C)cc1 |

| Compound | IC50 |
| --- | --- |
| COc1cc(/C(C)=N/NC(=O)c2ccc(O)c(Cl)c2)cc(OC)c1OCc1ccc(C(C)C)cc1 | > 100000 nM |

Reference: ChEMBL document CHEMBL1135077, “Human glucagon receptor antagonists based on alkylidene hydrazides” (Bioorg Med Chem Lett, 2002)
